Consider one compound from patent US20220354805A1, “Cannabidiol (CBD) as Chemical for Treating Aging-related Degenerative Diseases and Promoting Health Aging” (Hemix Biotech Limited, priority 2021, published 2022).

Test [1] has as its system skin of LMNA^G609G/G609G mice. Kind of test: Histology study of mouse skin (hematoxylin and eosin staining). In kind it is in vivo. The settings on record: CBD treated LMNA^G609G/G609G mice. The protocol:
In the step of study the histology of mouse skin and liver, the mice were sacrificed by cervical dislocation under anesthesia by intraperitoneal (IP) injection of 100 mg/kg ketamine and 16 mg/kg xylazine in sterile water. Major organs, including skin, muscle, intestine, kidney, spleen, liver, lung, heart, aorta, were collected. Half of the tissues were snap-frozen in liquid nitrogen and stored at −80° C. for extraction of proteins and RNA. Another half of the tissues were fixed in 4% paraformaldehyde (PFA) in PBS and shook at 4° C. overnight. For paraffin wax sections, the fixed tissues were incubated in 70% ethanol and shook at 4° C. overnight. Followed by stepwise dehydration of tissues in 90%, 95%, 100%, and 100% ethanol for 1 hour each. Then the tissues were incubated in 50% xylene and 50% ethanol for 30 to 40 minutes and transferred to 100% xylene for 10 to 15 minutes. The tissues were then incubated in wax for 30 minutes and transferred to new wax for 3 times. Then the tissues were placed in the wax inside a vacuum chamber overnight. On the following day, the tissues were embedded into paraffin blocks and sectioned into slides with 6 μm in thickness. After the tissue sections were dried, they were incubated in xylene solution twice each for 5 minutes. […]

The next test relates to LMNA^G609G/G609G MEFs. Kind of test: RNA sequencing of differentially expressed genes in MEFs. In kind it is cell-based, mouse. The settings on record: 10 μM CBD, 4 days. The protocol: Primary mouse embryonic fibroblasts (MEFs) at passage 3 were seeded and cultured in 10-cm dish and treated with CBD for 4 days. The cells were washed twice with ice-cold phosphate buffered saline (PBS), and 1 mL TRIzol was added. After incubation at room temperature for 5 minutes, the samples were collected into Eppendorf tubes. The supernatants were collected to Eppendorf tubes. 200 μl of chloroform was added to each sample, and the tubes were shaken vigorously by hand for 15 seconds. The samples were incubated at room temperature for 5 minutes and then centrifuged at 4° C. at 12000 rcf for 15 minutes. After centrifugation, the solution was separated into 3 layers. 450 μl of the clear top layer was collected, and 500 μl of isopropanol was added. […] The RNA quantitation was done using Nanodrop and Agilent 2100 Bioanalyzer. The RNA integrity was measured using Agilent 2100 Bioanalyzer. The RNA purity was measured using agarose gel electrophoresis and Agilent 2100 Bioanalyzer. […]
Illumina sequencing system was used for paired-end reads of read lengths PE150. […] The results were validated by quantitative polymerase chain reaction (qPCR). […] The concentration of RNA was measured by nanodrop. […] Then the samples were ready for qPCR. […] The delta-delta-ct value was calculated by the qPCR machine based on the signal of target genes normalized with housekeeping genes.

Take `C=C(C)[C@@H]1CCC(C)=C[C@H]1c1c(O)cc(CCCCC)cc1O` [CBD, Cannabidiol]: in test [1], the “decrease of hair follicle density” value was “rescued” and the “loss of skin adipose layer” value is given as “rescued”. Also, in the test on LMNA^G609G/G609G MEFs, the “differentially expressed genes restored to normal levels” value is listed as 1066 out of 1363 and the “share of differentially expressed genes restored to normal levels” value is recorded as 78%.
